Test [1] relates to 2LMP human breast cancer xenografts. Put plainly: TRA-8 therapy alone or with chemotherapy or radiation in mice bearing breast cancer xenografts. It counts as in vivo, Athymic nude mice. The note with it: Figure 25 experiment; 200 µg TRA-8 i.p., adriamycin 6 mg/kg i.v. The protocol: Athymic nude mice were injected s.c. with 3 x 10^7 2LMP cells. […] The growth of tumors was monitored over time. […] Tumor size and regression rates were determined.
Data from 6 independent experiments were analyzed by individual experiment. Treatment combinations were compared with respect to in vivo anti-tumor efficacy, i.e., inhibition of tumor growth, which was measured as three endpoints; extension of tumor doubling times, percentage of tumor regressions, and growth rates over time. The actual number of days at which the tumor doubled in surface area (product of two diameters) relative to baseline on day 7 after tumor cell injection was used in the doubling time analysis. The nonparametric Kruskal-Wallis test was used for median tumor doubling time comparisons between treatments. Fisher's exact test was used to compare the proportions of tumor regressions and relapse-free regressions across treatment groups. […]
A total of 166 animals, 10 treatment groups, and 6 independent experiments were included in the aggregate analysis. […] The median tumor doubling times were analyzed using the Kruskal-Wallis test and Fisher's exact test was used to compare the proportions of tumor regressions and relapse-free regressions across treatment groups.

In a further test the test system is 2LMP xenografts. As to the kind of experiment: Analysis of apoptosis in xenografts, TUNEL. Conditions: for stained cells: day 14, 100 µg TRA-8 days 7 and 10, adriamycin 3 mg/kg or paclitaxel 10 mg/kg days 8 and 11, untreated 4%; for intense stained cells: day 14, same doses, untreated 1%. It counts as in vivo, Athymic nude mice. As to the method:
One group of mice was untreated. The xenografts were dissected for the study of apoptosis on day 14 after tumor cell injection. The reason for the substantial reduction in treatment intensity compared to our standard treatment protocol was to allow adequate tumor tissue for analysis on day 14. Tunel assay for apoptosis in tumor xenografts was performed as follows. Five-micron paraffin sections of tissue were mounted on Superfrost/Plus slides and heated at 58°C for 1 h. Tissue sections were deparaffinized in three changes of xylene and rehydrated with one change of absolute ethanol, 95% ethanol, and 70% ethanol, each in 5-min increments. Then, the sections were placed in Tris-buffered saline (0.5M Tris base, 0.15 M NaCl, 0.0002% Triton X-100, pH 7.6). Apoptotic nuclei were detected using an Apop Tag Peroxidase kit (Intergen, Purchase, NY). Proteinase K (20 µg/ml in distilled deionized H2O) was added to the tissue specimens and incubated at room temperature for 15 min. Endogenous peroxidases were quenched with an aqueous solution of 3% hydrogen peroxide for 5 min. Sections were treated with an equilibration buffer for 30 min and then incubated with the TdT/enzyme (diluted in labeling reaction mix) for 1 h at 37°C using parafilm covers. During this incubation, the TdT enzyme binds the 3'-OH ends of DNA fragments and catalyzes the addition of digoxigenin-labeled and unlabeled deoxynucleotides. Negative controls were incubated with distilled H2O (diluted in labeling reaction mix) instead of the TdT enzyme. A stop buffer was added for 10 min at room temperature to terminate the labeling reaction. An anti-digoxigenin conjugate was added to each slide for 30 min. The chromagen 3,3' DAB was used to visualize the labeled 3' OH end of DNA fragments. The slides were then rinsed in deionized water and lightly counterstained with hematoxylin, dehydrated using graded alcohols and xylene and coverlsipped using Permount. Approximately 10 random fields were evaluated for percentage of Tunel stained and percentage of intensely stained apoptotic bodies throughout the tissue.

In another test the test system is PC-3 cells. As to the kind of experiment: Combination study of TRA-8 with Paclitaxel, XTT viability. Conditions: Homo sapiens, PC-3, read-out: cell viability. It counts as cell-based. The protocol: Human prostate cancer cell line PC-3 is obtained from American Tissue Culture Collection (ATCC) and maintained in F-12K Nutrient Mixture (21127-022, Gibco BRL) containing 10% fetal bovine serum (FBS, Hyclone), 1% L-Glutamine-200 mM (25030-149, Gibco BRL) and 0.5% Penicillin Streptomycin Solution (P-7539, Sigma). RPMI1640 medium (MED-008, IWAKI) supplemented with 10% FBS and 0.5% Penicillin Streptomycin Solution is used in the following experiment. Exponentially growing PC-3 cells are collected by trypsinization and washed twice with fresh medium. The cells are then counted, resuspended in fresh medium at a density of 5 x 10^4 cells/ml and distributed in triplicate into flat-bottomed 96 well plates (3598, Corning-Coster) in a total volume of 100 µl/well one day before the start of the experiment. A representative anti-cancer drug, Paclitaxel (169-18611, Wako) dissolved in dimethylsulfoxide (10 mg/ml) is diluted in fresh medium and then added to the 96-well plates containing the cells at 50 µl/well. The final concentrations of dimethylsulfoxide are less than 0.1%. […] After incubation for a further 24 hr, 50 µl of Minimum Essential Medium (11095-098, Gibco BRL) containing 1 mg/ml of XTT and […] of PMS is added to the wells and the plates are incubated for 6 hr. OD450 is then measured by SPECTRA MAX 250 (Molecular Devices) and the cell viability is calculated as follows.

The test system of the next test is Jurkat cells. As to the kind of experiment: Caspase inhibition assay, Jurkat cells with TRA-8. The note with it: 50 ng/ml TRA-8 overnight. It counts as cell-based, human.

This note sets out measurements from patent EP1506011B1, “AN ANTIBODY SELECTIVE FOR A TUMOR NECROSIS FACTOR-RELATED APOPTOSIS-INDUCING LIGAND RECEPTOR AND USES THEREOF” (The UAB Research Foundation, priority 2001, dated 2003).

Residues, ends and D or L forms follow the SMILES beside them. *: point of attachment. Cbz = O=C(OCc1ccccc1)*; CH2F = FC*

Method for Jurkat cells: Cell viability was determined by ATPLite, MTT, and PI exclusion assays after overnight culture. […] Cell viability was determined by ATPLite. […] Cell viability was determined by ATPLite. The results are presented as mean±SEM of triplicate cultures of two experiments. d. […] Cell viability was determined by ATPLite assay. […] Cell viability of hepatocytes was determined by the ATPLite assay. […] Cell viability was determined by the ATPLite assay.

Take `COc1cccc2c1C(=O)c1c(O)c3c(c(O)c1C2=O)C[C@@](O)(C(=O)CO)C[C@@H]3O[C@H]1C[C@H](N)[C@H](O)[C@H](C)O1` [Adriamycin, doxorubicin]: the “inhibition of tumor growth compared to untreated controls” value in test [1] is reported as “did not differ from controls”. In the test on 2LMP xenografts, this compound had a stained cells of 8% and an intense stained cells of 6%.
As for `CC(=O)O[C@H]1C(=O)[C@@]2(C)[C@H]([C@H](OC(=O)c3ccccc3)[C@]3(O)C[C@H](OC(=O)[C@H](O)[C@@H](NC(=O)c4ccccc4)c4ccccc4)C(C)=C1C3(C)C)[C@]1(OC(C)=O)CO[C@@H]1C[C@@H]2O` [Paclitaxel], in the test with PC-3 cells, the viability (commonly the share of living cells, or the viability signal relative to a control) at 0.2 µM was above 40%. In the test with 2LMP xenografts, this compound displayed a stained cells of 7% and an intense stained cells of 2%.
Regarding `CC(NC(=O)C(NC(=O)OCc1ccccc1)C(C)C)C(=O)NC(CC(=O)O)C(=O)CF` (stereo not drawn) [Z-VAD] (Cbz-Val-Ala-Asp-CH2F; configuration not given here), the “inhibition of TRA-8-mediated cell death” value with Jurkat cells is reported as “completely inhibited”.
